Assay results taken from patent US12157722B1, “Crystalline hydrochloride salts of N-ethyl-2-(5-fluoro-1H-indol-3-yl)-N-methylethan-1-amine” (Gilgamesh Pharmaceuticals, Inc., priority 2023, dated 2024).

What was measured:
[1] = Exposure of dry cake to humidity, solid form checked by XRPD; type: physicochemical; details: for XRPD pattern, dry cake exposed to humidity: monofumarate solids exposed to humidity (90% RH/30° C.)
[2] = Dynamic Vapor Sorption (DVS); type: physicochemical; details: 25° C., 75% RH
Protocol: Dynamic Vapor Sorption (DVS) was performed using a Q5000SA. The sample (5-15 mg) was loaded into a metallic quartz sample pan, suspended from a microbalance, and exposed to a humidified stream of nitrogen gas. Weight changes were relative to a matching empty reference pan opposite the sample, suspended from the microbalance. The sample was held for a minimum of 10 min at each level and only progressed to the next humidity level if there was <0.002% change in weight between measurements (interval: 5 s) or 45 min had elapsed (for 5-65% RH) or 2 h had elapsed (for 80 and 95% RH). The following programs were used: • 1—Equilibration at 50% RH • 2—50% to 5%. (50%, 35%, 20%, and 5%) • 3—5% to 95%(5%, 20%, 35%, 50%, 65%, 80%, and 95%) • 4—95% to 5%(95%, 80%, 65%, 50%, 35%, 20%, and 5%) • 5—5% to 50% (5%, 20%, 35%, and 50%) • 1—Equilibration at 50% RH • 2—50% to 2%. (50%, 40%, 30%, 20%, 10%, and 2%) • 3—2% to 75%(2%, 10%, 20%, 30%, 40%, 50%, 60%, 70% and 75%) • 4—75% to 2%(75%, 70%, 60%, 50%, 40%, 30%, 20%, 10% and 2%) • 5—2% to 50% (2%, 10%, 20%, 30%, 40% and 50%) • 1—Equilibration at 50% RH • 2—50% to 2%.(50%, 40%, 30%, 20%, 10%, and 2%) • 3—2% to 65% (2%, 10%, 20%, 30%, 40%, 50%, 60% and 65%) • 4—65% to 2% (65%, 60%, 50%, 40%, 30%, 20%, 10% and 2%) • 5—2% to 50% (2%, 10%, 20%, 30%, 40% and 50%). […]

SMILES | XRPD pattern, dry cake exposed to humidity [1] | other results
CCN(C)CCc1c[nH]c2ccc(F)cc12.CCN(C)CCc1c[nH]c2ccc(F)cc12.O=C(O)/C=C/C(=O)O [hemifumarate Form 1, N-ethyl-2-(5-fluoro-1H-indol-3-yl)-N-methylethan-1-amine hemifumarate Form 1] | – | XRPD pattern, Humid ([1]; hemifumarate dry cake from EtOH:MTBE (1:1 vol.) exposed to humidity): deliquescent
CCN(C)CCc1c[nH]c2ccc(F)cc12.Cl [hydrochloride Form 1, N-ethyl-2-(5-fluoro-1H-indol-3-yl)-N-methylethan-1-amine hydrochloride Form 1] | – | DVS isotherm, equilibration behaviour [2]: did not reach equilibrium at 75% RH
CCN(C)CCc1c[nH]c2ccc(F)cc12.O=C(O)/C=C/C(=O)O [monofumarate Form 1, N-ethyl-2-(5-fluoro-1H-indol-3-yl)-N-methylethan-1-amine monofumarate Form 1] | Form 1 | –
CCN(C)CCc1c[nH]c2ccc(F)cc12.O=C(O)/C=C/C(=O)O [monofumarate Form 2, N-ethyl-2-(5-fluoro-1H-indol-3-yl)-N-methylethan-1-amine monofumarate Form 2] | slowly converted to Form 1 | –
